For 1 molecule, MIC results are on record in patent US20240041976A1, “COMPOSITION AND USE” (priority 2020, published 2024).

In this test the test system is MRSA ATCC 33591. The test is described as follows: microbe, parasite or virus in culture. Format: cell-based, Staphylococcus aureus. The note with it: Staphylococcus aureus, 24 h, read-out: MIC, single antimicrobial. As for the experimental part: Antimicrobial activity was measured using the AAMP assay (Wiegand et al., 2008, Nat. Protoc., Vol. 3(2), p 163-175).
Synergy testing was done with a microtiter plate checkerboard assay as previously described (Orhan et al., 2005, J. Clin. Microbiol., Vol. 43(1), p 140-143). Briefly, equal amounts of antimicrobial A were applied on microtiter plate 1 in wells A1-H1 and then diluted two-fold to wells 2-12. Similarly, equal amounts of antimicrobial B were applied on microtiter plate 2 in wells A1-A12 and diluted two-fold in wells B-H. Volumes of 50 μl of antimicrobial A from each well of microtiter plate 1 were transferred into microtiter plate 3, except for wells H1-H12. Similarly, the same volumes were transferred from microtiter plate 2 into plate 3, except for wells A1-A8. A 100 μl volume of 25 times diluted ON bacterial culture of MRSA was transferred into each well of plate 3. A 50 μl volume of pure broth was added into each well in lines H1-H12 and A1-A8 which were used to estimate MIC values of pure substances (blank).
Antimicrobial activity was measured using the AAMP assay as described in Example 2.
Synergy testing was performed as in Example 2.

SMILES strings stand for the structures.

Take `C/C=C(\NC(=O)c1csc(-c2csc(-c3ccc4c(n3)-c3csc(n3)[C@H]([C@@H](C)O)NC(=O)c3csc(n3)[C@H](C(C)C)NC(=O)c3csc(n3)/C(=C/C)NC(=O)[C@H]([C@@H](C)O)NC(=O)c3csc-4n3)n2)n1)C(=O)NC[C@@H](C)O` [MP1, micrococcin P1]: the MIC was found to be 2.5 µg/mL.
